Source: patent US9616006B2, “Methods and compositions for treating dermatological diseases and conditions” (priority 2007, dated 2017)

Columns and labels:
MCP-1 [1] = assay: TNF-α-induced MCP-1 production in monocytes; type: cell-based; conditions: Monocyte, read-out: Percent Inhibition of MCP-1
Source text: (§1) DHE and IE both have inhibitory effects on the production of the inflammatory mediators in monocytes.

MCP-1 [2] = assay: LPS-induced MCP-1 production in monocytes; type: cell-based; conditions: Monocyte; Monocytes (LPS); 100 uM; read-out: Percent Inhibition of MCP-1
Source text: as §1

[3] = system: human melanocyte cultures; assay: Pigment in human melanocyte cultures; type: cell-based; conditions: treated for 9 days
collagen 1 mRNA = assay: Collagen mRNA in fibroblasts by RT-PCR; type: cell-based, human; conditions: fibroblast cell cultures treated 72 hours
Source text: (§2) The presently claimed and disclosed inventive concept(s) further contemplates use of various DHE, IE and EV compositions and salts, esters, ethers, and derivatives thereof to mitigate the effects of aging on the skin. For all aging studies, normal human fibroblast cell cultures were used. These cells normally produce collagen, elastin and hyaluronic acid. As the skin ages, the fibroblasts in the dermis lose their ability to produce these three key components of skin, and the skin consequently loses elasticity, thickness and smooth texture. In addition, as fibroblasts age, they increase the expression of certain enzymes that destroy collagen and elastin. There are about 13 of these enzymes, collectively referred to as MMPs (matrix metalloproteinases). One of the principal MMPs, MMP-1, is responsible for collagen degradation. […] Fibroblast cell cultures were treated with either IE, DHE or EV for 72 hours at which time the amount of collagen mRNA present in the cells was determined.

IL-8 [4] = assay: TPA-induced IL-8 production in keratinocytes (ELISA); type: cell-based, human; conditions: Homo sapiens, Keratinocyte, read-out: Percent Inhibition of IL-8
IL-8 [5] = assay: UV-induced IL-8 production in fibroblasts (ELISA); type: cell-based, human; conditions: Homo sapiens, Fibroblast, read-out: Percent Inhibition of IL-8
Description: (§3) In one study, various concentrations of DHE were added to culture medium and these media were placed on human fibroblast cell cultures (results shown in FIG. 1). Cells were either not induced or induced with UVB radiation to stimulate cytokine/PGE-2 production. At 24 hours after treatment, the cell culture medium was removed and assayed by ELISA methods for the expression of PGE-2, various cytokines and chemokines.
(§4) DHE and IE both have inhibitory effects on the production of the inflammatory mediators in fibroblasts.

TNF-α [6] = assay: TPA-induced TNF-α production in keratinocytes (ELISA); type: cell-based, human; conditions: Homo sapiens, Keratinocyte; Keratinocytes (TPA); 100 uM; read-out: Percent Inhibition of TNF-α
Description: as §3
(§5) When similar experiments were carried out with human keratinocytes, DHE was again found to markedly suppress the UVR induction of PGE-2, with a concentration of 50 uM inhibiting the production of PGE-2 by over 60% (results shown in FIG. 2). […] Further, since PGE-2 is known to be a principal factor in the development of actinic keratosis and skin cancer, DHE can also be used in treating these conditions.
Inflammatory mediators produced in the skin contribute to the development and propagation of such diseases as rosacea, psoriasis and atopic dermatitis. While many inflammatory mediators are involved in these diseases, TNF-α is known to be a major cytokine involved in psoriasis. For atopic dermatitis, TNF-α, IL-8, and MCP-1 are important mediators of inflammation in these diseases. DHE is effective in suppressing the TPA-induced (TPA is tetradecanolyl phorbol ester) production of TNF-α by approximately 50% at a 100 micromolar concentration (results shown in FIG. 3).
(§6) DHE and IE both have inhibitory effects on production of the inflammatory mediators in keratinocytes.

elastin mRNA = assay: Elastin mRNA in human dermal fibroblasts by RT-PCR; type: cell-based; conditions: 72 hours
Source text: as §2, with “In addition, as fibroblasts age, they increase the expression of certain enzymes that destroy collagen and elastin.” left out, “The image is from an electrophoresis gel of DNA amplified by PCR from fibroblast mRNA. This gel was analyzed and” for “Fibroblast cell cultures were treated with either IE, DHE or EV for 72 hours at which time”, “density” for “amount”, “each band quantified by image analysis software.” for “collagen mRNA present in the cells was determined.”

PGE-2 [7] = assay: UV-induced PGE-2 production in fibroblasts (ELISA); type: cell-based, human; conditions: Homo sapiens, Fibroblast; Fibroblasts (UV); 100 uM; read-out: Percent Inhibition of PGE-2
Description: as §3
As is shown in FIG. 1, UV radiation (UVR) treatment of fibroblasts results in a 6 fold increase in PGE-2.
as §4

TNF-α [8] = assay: LPS-induced TNF-α production in monocytes; type: cell-based; conditions: Monocyte; Monocytes (LPS); 100 uM; read-out: Percent Inhibition of TNF-α
Source text: as §1

IL-8 [9] = assay: LPS-induced IL-8 production in monocytes; type: cell-based; conditions: Monocyte; Monocytes (LPS); 100 uM; read-out: Percent Inhibition of IL-8
Source text: as §1

PGE-2 [10] = assay: IL-1-induced PGE-2 production in fibroblasts (ELISA); type: cell-based, human; conditions: Homo sapiens, Fibroblast, Fibroblasts (IL-1), read-out: Percent Inhibition of PGE-2
Description: as §3, with “Cells were either not induced or induced with UVB radiation to stimulate cytokine/PGE-2 production.” left out
as §4

PGE2 [11] = assay: UV-induced PGE2 production in keratinocytes (ELISA); type: cell-based, human; conditions: Homo sapiens, Keratinocyte; Keratinocytes (UV); 100 uM; read-out: Percent Inhibition of PGE2
Description: as §3, §5, §6

IL-8 [12] = assay: UV-induced IL-8 production in keratinocytes (ELISA); type: cell-based, human; conditions: Homo sapiens, Keratinocyte, read-out: Percent Inhibition of IL-8
Description: as §3, §5, §6

PGE2 [13] = assay: TPA-induced PGE2 production in keratinocytes (ELISA); type: cell-based, human; conditions: Homo sapiens, Keratinocyte, read-out: Percent Inhibition of PGE2

Question: With `CC=Cc1ccc(O)c(OC)c1` [IE, isoeugenol] as the compound, how does the inhibition at 100 µM (MCP-1 [1]) read?
Answer: 82%

Question: And the inhibition at 100 µM (MCP-1 [2])?
Answer: 87%

Question: What about the “pigment in human melanocyte cultures” value [3] of the same compound?
Answer: loss of pigment

Question: And the “collagen production (collagen mRNA)” value (collagen 1 mRNA)?
Answer: stimulation

Question: And the inhibition at 100 µM (IL-8 [4])?
Answer: 75%

Question: And the inhibition at 100 µM (IL-8 [5])?
Answer: 2%

Question: What about the inhibition at 100 µM (TNF-α [6]) of the same compound?
Answer: 71%

Question: What about the “elastin levels (elastin mRNA)” value (elastin mRNA) of the same compound?
Answer: increase

Question: What about the inhibition at 100 µM (PGE-2 [7]) of the same compound?
Answer: 77%

Question: What about the inhibition at 100 µM (TNF-α [8]) of the same compound?
Answer: 80%

Question: And the inhibition at 100 µM (IL-8 [9])?
Answer: 75%

Question: What about the inhibition at 100 µM (PGE-2 [10]) of the same compound?
Answer: 81%

Question: And the inhibition at 100 µM (PGE2 [11])?
Answer: 76%

Question: And the inhibition at 100 µM (IL-8 [12])?
Answer: 76%

Question: What about the inhibition at 100 µM (PGE2 [13]) of the same compound?
Answer: 82%
